Measurements as given in US8999956B2, “N-[(het)arylalkyl)] pyrazole(thio)carboxamides and their heterosubstituted analogues” (Bayer Intellectual Property GmbH, priority 2010, dated 2015).
Several values for one entry are separate records, joined by “and”; a condition that tells them apart may be missing. Equal values may be shown once. Read-outs that look alike come from different tables or passages of the source.

How the values were obtained:
[1] = log P by HPLC on reversed-phase column (EEC Directive 79/831 Annex V.A8); type: physicochemical
Procedure: In table 1, the log P values were determined in accordance with EEC Directive 79/831 Annex V.A8 by HPLC (High Performance Liquid Chromatography) on a reversed-phase column (C18), using the method described below: Temperature: 40° C.; […]

[2] = test system: aflatoxines produced by Aspergillus parasiticus; test: microbe, parasite or virus in culture; type: cell-based
Aspergillus parasiticus = test: microbe, parasite or virus in culture; type: cell-based
Pyrenophora teres = test: In vivo preventive test on Pyrenophora teres (barley); conditions: 500 ppm of active ingredient, evaluated 7-9 days after inoculation
Procedure: (§1) Solvent: 49 parts by weight of N,N-dimethylformamide Emulsifier: 1 part by weight of alkylaryl polyglycol ether To produce a suitable preparation of active compound, 1 part by weight of active compound is mixed with the stated amounts of solvent and emulsifier, and the concentrate is diluted with water to the desired concentration. To test for preventive activity, young plants are sprayed with the preparation of active compound at the stated rate of application. One day after this treatment, the plants are inoculated with an aqueous spore suspension of Pyrenophora teres.

Alternaria solani = test: In vivo preventive test on Alternaria solani (tomato); conditions: 500 ppm of active ingredient, evaluated 7 days after inoculation
Procedure: as §1, with “Alkylarylpolyglycolether” for “alkylaryl polyglycol ether”, “Alternaria solani.” for “Pyrenophora teres.”

## CC1CCCC(Cc2cccc(Cl)c2)C1NC(=O)c1c(C(F)F)nn(C)c1F (mixture of isomers) [Example 255]
[1]; mixture of two or more isomers, one value per isomer, HPLC reversed-phase C18, 40° C., 0.1% aqueous formic acid and acetonitrile
  logP: 4.31 and 4.44 and 4.54
[2]
  % Inhibition of Aflatoxin at 50 μM: 100%
Aspergillus parasiticus
  % Inhibition of fungal growth at 50 μM: 90%

## CC(CNC(=O)c1c(C(F)F)nn(C)c1Cl)Cc1ccc(Cl)c(Cl)c1 (racemic) [Example 127]
[1]
  logP: 3.87
Pyrenophora teres
  Efficacy: 100%
Alternaria solani
  Efficacy: 90%

## Cn1nc(C(F)F)c(C(=O)NC(COc2ccc3ccccc3c2)C2CC2)c1F (racemic) [Example 137]
[1]
  logP: 3.74
Pyrenophora teres
  Efficacy: 89%
Alternaria solani
  Efficacy: 95%

## CN(C(=O)c1c(C(F)F)nn(C)c1F)C(COc1ccccc1Cl)C1CC1 (racemic) [Example 145]
[1]
  logP: 3.44
Pyrenophora teres
  Efficacy: 70%
Alternaria solani
  Efficacy: 70%

## Cc1cccc(C)c1CC(C)CNC(=O)c1c(C(F)F)nn(C)c1Cl (racemic) [Example 149]
[1]
  logP: 3.63
Pyrenophora teres
  Efficacy: 95%
Alternaria solani
  Efficacy: 90%

## CC(C)CC(C)C1CCCC1NC(=O)c1c(C(F)F)nn(C)c1F (single isomer, unassigned) [Example 317]
[1]
  logP: 4.22 isomer B
[2]
  % Inhibition of Aflatoxin at 50 μM: 100%
Aspergillus parasiticus; 50 µM
  % Inhibition of fungal growth at 50 μM: 90%

## CC(O)C1CCCCC1NC(=O)c1c(C(F)F)nn(C)c1F (single isomer, unassigned) [Example 341]
[1]
  logP: 1.72 isomer A
Alternaria solani
  Efficacy: 80%

## CN(CCCc1ccccc1)C(=O)c1c(C(F)F)nn(C)c1Cl [Example 5]
[1]
  logP: 2.82
Alternaria solani
  Efficacy: 80%

## CN(CCCc1ccccc1)C(=O)c1c(C(F)F)nn(C)c1F [Example 6]
[1]
  logP: 2.73
Pyrenophora teres
  Efficacy: 70%
Alternaria solani
  Efficacy: 95%

## CC(CCc1ccccc1)NC(=O)c1c(C(F)F)nn(C)c1Cl (centres unmarked) [Example 11]
[1]
  logP: 3.04
Pyrenophora teres
  Efficacy: 100%
Alternaria solani
  Efficacy: 95%

## CC(CCc1ccccc1)NC(=O)c1c(C(F)F)nn(C)c1F (centres unmarked) [Example 12]
[1]
  logP: 2.88
Pyrenophora teres
  Efficacy: 100%
Alternaria solani
  Efficacy: 95%

## CC(COc1ccccc1)N(C)C(=O)c1c(C(F)F)nn(C)c1F (centres unmarked) [Example 16]
[1]
  logP: 2.62
Pyrenophora teres
  Efficacy: 90%
Alternaria solani
  Efficacy: 90%

## CN(CC(NC(=O)c1c(C(F)F)nn(C)c1F)C1CC1)c1ccccc1 (centres unmarked) [Example 17]
[1]
  logP: 3.02
Alternaria solani
  Efficacy: 95%

## Cn1nc(C(F)F)c(C(=O)NC(COc2ccccc2)C2CC2)c1F (centres unmarked) [Example 19]
[1]
  logP: 3.06
Pyrenophora teres
  Efficacy: 89%
Alternaria solani
  Efficacy: 95%

## CN(C(=O)c1c(C(F)F)nn(C)c1F)C(COc1ccccc1)C1CC1 (centres unmarked) [Example 21]
[1]
  logP: 3.08
Pyrenophora teres
  Efficacy: 80%
Alternaria solani
  Efficacy: 90%

## Cn1nc(C(F)F)c(C(=O)NC(CSc2ccccc2)C2CC2)c1F (centres unmarked) [Example 22]
[1]
  logP: 3.25
Alternaria solani
  Efficacy: 95%

## CN(c1ccc(Oc2ccccc2)cc1)C(CNC(=O)c1c(C(F)F)nn(C)c1Cl)C(F)(F)F (centres unmarked) [Example 32]
[1]
  logP: 4.27
Pyrenophora teres
  Efficacy: 70%
Alternaria solani
  Efficacy: 95%

## CN(c1ccc(Oc2ccccc2)cc1)C(CNC(=O)c1c(C(F)F)nn(C)c1F)C(F)(F)F (centres unmarked) [Example 33]
[1]
  logP: 4.16
Pyrenophora teres
  Efficacy: 95%
Alternaria solani
  Efficacy: 95%

## Cn1nc(C(F)F)c(C(=O)NCCOc2ccc(Oc3ccccc3)cc2)c1F [Example 34]
[1]
  logP: 3.42
Alternaria solani
  Efficacy: 90%

## CCN(C(=O)c1c(C(F)F)nn(C)c1F)C(C)COc1ccc(C)cc1 (centres unmarked) [Example 38]
[1]
  logP: 3.27
Pyrenophora teres
  Efficacy: 80%
Alternaria solani
  Efficacy: 80%

## Cc1ccc(SCC(C2CC2)N(C)C(=O)c2c(C(F)F)nn(C)c2F)cc1 (centres unmarked) [Example 40]
[1]
  logP: 3.64
Pyrenophora teres
  Efficacy: 80%
Alternaria solani
  Efficacy: 95%

## Cn1nc(C(F)F)c(C(=O)NC2(COc3ccc(Cl)cc3)CC2)c1F [Example 44]
[1]
  logP: 3.00
Alternaria solani
  Efficacy: 100%

## Cn1nc(C(F)F)c(C(=O)NC2(COc3ccc(Cl)cc3)CC2)c1Cl [Example 45]
[1]
  logP: 3.19
Alternaria solani
  Efficacy: 95%

## Cn1nc(C(F)F)c(C(=O)NCC(Sc2ccc(Cl)cc2)C(F)(F)F)c1F (centres unmarked) [Example 46]
[1]
  logP: 3.73
Pyrenophora teres
  Efficacy: 100%
Alternaria solani
  Efficacy: 100%

## Cn1nc(C(F)F)c(C(=O)NCC(Sc2ccc(Cl)cc2)C(F)(F)F)c1Cl (centres unmarked) [Example 47]
[1]
  logP: 3.89
Alternaria solani
  Efficacy: 80%

## Cn1nc(C(F)F)c(C(=O)NCCOc2ccc(Cl)cc2)c1F [Example 48]
[1]
  logP: 2.78
Alternaria solani
  Efficacy: 90%

## CC(C)C(CCc1ccc(Cl)cc1)NC(=O)c1c(C(F)F)nn(C)c1F (centres unmarked) [Example 63]
[1]
  logP: 3.94
Pyrenophora teres
  Efficacy: 100%
Alternaria solani
  Efficacy: 100%

## CCC(COc1cc(C)cc(C)n1)NC(=O)c1c(C(F)F)nn(C)c1Cl (centres unmarked) [Example 67]
[1]
  logP: 2.14
Pyrenophora teres
  Efficacy: 100%
Alternaria solani
  Efficacy: 70%

## Cn1nc(C(F)F)c(C(=O)NCCOc2ccc(C(F)(F)F)cc2)c1Cl [Example 69]
[1]
  logP: 3.17
Alternaria solani
  Efficacy: 80%

## Cn1nc(C(F)F)c(C(=O)NCCOc2cccc(Oc3ccccc3)c2)c1F [Example 74]
[1]
  logP: 3.41
Alternaria solani
  Efficacy: 95%

## Cc1ccsc1CCC(C)NC(=O)c1c(C(F)F)nn(C)c1Cl (centres unmarked) [Example 76]
[1]
  logP: 3.17
[2]
  % Inhibition of Aflatoxin at 50 μM: 100%
Aspergillus parasiticus
  % Inhibition of fungal growth at 50 μM: 83%

## Cc1ccsc1CCC(C)NC(=O)c1c(C(F)F)nn(C)c1F (centres unmarked) [Example 77]
[1]
  logP: 3.02
[2]
  % Inhibition of Aflatoxin at 50 μM: 100%
Aspergillus parasiticus
  % Inhibition of fungal growth at 50 μM: 98%

## CCC(CCc1sccc1C)NC(=O)c1c(C(F)F)nn(C)c1Cl (centres unmarked) [Example 78]
[1]
  logP: 3.48
[2]
  % Inhibition of Aflatoxin at 50 μM: 83%
Aspergillus parasiticus
  % Inhibition of fungal growth at 50 μM: 65%

## CCC(CCc1sccc1C)NC(=O)c1c(C(F)F)nn(C)c1F (centres unmarked) [Example 79]
[1]
  logP: 3.31
[2]
  % Inhibition of Aflatoxin at 50 μM: 100%
Aspergillus parasiticus
  % Inhibition of fungal growth at 50 μM: 93%

## Cn1nc(C(F)F)c(C(=O)NC(C)(C)CCc2cccc(Cl)c2)c1Cl [Example 83]
[1]
  logP: 4.01
Pyrenophora teres
  Efficacy: 95%
Alternaria solani
  Efficacy: 95%

## Cn1nc(C(F)F)c(C(=O)NC(C)(C)CCc2cccc(Cl)c2)c1F [Example 84]
[1]
  logP: 3.83
Pyrenophora teres
  Efficacy: 95%
Alternaria solani
  Efficacy: 95%

## CC(CNC(=O)c1c(C(F)F)nn(C)c1Cl)Cc1cc(Cl)cc(Cl)c1 (centres unmarked) [Example 115]
[1]
  logP: 4.04
Pyrenophora teres
  Efficacy: 100%
Alternaria solani
  Efficacy: 90%

## Cc1cccc(C)c1OCC(C)N(C(=O)c1c(C(F)F)nn(C)c1Cl)C1CC1 (centres unmarked) [Example 156]
[1]
  logP: 4.15
Pyrenophora teres
  Efficacy: 95%
Alternaria solani
  Efficacy: 80%

## CC(CNC(=O)c1c(C(F)F)nn(C)c1Cl)Cc1c(F)cccc1F (centres unmarked) [Example 158]
[1]
  logP: 3.21
Pyrenophora teres
  Efficacy: 95%
Alternaria solani
  Efficacy: 80%

## Cn1nc(C(F)F)c(C(=O)NCCOc2c(F)cccc2F)c1F [Example 159]
[1]
  logP: 2.44
Alternaria solani
  Efficacy: 90%

## CC(CNC(=O)c1c(C(F)F)nn(C)c1Cl)Cc1cc(Cl)ccc1Cl (centres unmarked) [Example 164]
[1]
  logP: 3.87
Pyrenophora teres
  Efficacy: 100%
Alternaria solani
  Efficacy: 95%

## Cn1nc(C(F)F)c(C(=O)NCCOc2cc(Cl)ccc2Cl)c1Cl [Example 170]
[1]
  logP: 3.31
Alternaria solani
  Efficacy: 90%

## CC(CCc1cc(Cl)ccc1Cl)NC(=O)c1c(C(F)F)nn(C)c1Cl (centres unmarked) [Example 171]
[1]
  logP: 3.87
Pyrenophora teres
  Efficacy: 100%
Alternaria solani
  Efficacy: 95%

## CCC(COc1cc(Cl)ccc1Cl)NC(=O)c1c(C(F)F)nn(C)c1Cl (centres unmarked) [Example 176]
[1]
  logP: 4.01
Pyrenophora teres
  Efficacy: 95%
Alternaria solani
  Efficacy: 80%

## Cn1nc(C(F)F)c(C(=O)NC(C)(C)CCc2cc(Cl)ccc2Cl)c1Cl [Example 177]
[1]
  logP: 4.49
Pyrenophora teres
  Efficacy: 100%
Alternaria solani
  Efficacy: 100%

## CC(COc1ccc(Cl)cc1Cl)N(C(=O)c1c(C(F)F)nn(C)c1Cl)C1CC1 (centres unmarked) [Example 188]
[1]
  logP: 4.41
Pyrenophora teres
  Efficacy: 100%
Alternaria solani
  Efficacy: 100%

## Cn1nc(C(F)F)c(C(=O)NC(COc2ccc(Cl)cc2Cl)C2CC2)c1Cl (centres unmarked) [Example 194]
[1]
  logP: 4.18
Alternaria solani
  Efficacy: 70%

## Cn1nc(C(F)F)c(C(=O)NC(C)(C)CCc2ccc(Cl)cc2Cl)c1Cl [Example 195]
[1]
  logP: 4.61
Pyrenophora teres
  Efficacy: 95%
Alternaria solani
  Efficacy: 95%

## Cn1nc(C(F)F)c(C(=O)N(CCOc2c(Cl)cc(Cl)cc2Cl)C2COC2)c1F [Example 210]
[1]
  logP: 3.42
Pyrenophora teres
  Efficacy: 90%
Alternaria solani
  Efficacy: 70%

## CN(C(=O)c1c(C(F)F)nn(C)c1Cl)C(CSCc1ccccc1)C1CC1 (centres unmarked) [Example 224]
[1]
  logP: 3.62
Alternaria solani
  Efficacy: 70%

## CC(C)OC1CCCC(NC(=O)c2c(C(F)F)nn(C)c2F)C1 (centres unmarked) [Example 325]
[1]
  logP: 2.06
Alternaria solani
  Efficacy: 95%

## Cn1nc(C(F)F)c(C(=O)NCC2CCCC(C(F)(F)F)C2)c1F (centres unmarked) [Example 379]
[1]
  logP: 2.96
Pyrenophora teres
  Efficacy: 100%
Alternaria solani
  Efficacy: 95%

## Cn1nc(C(F)F)c(C(=O)NC2(C3CCCCC3)CC2)c1Cl [Example 380]
[1]
  logP: 3.29
Pyrenophora teres
  Efficacy: 100%
Alternaria solani
  Efficacy: 95%
